Experimental data: US8946439B2, “Amide compounds, compositions and uses thereof” (Evotec AG, priority 2008, dated 2015)
Read-outs that look alike come from different tables or passages of the source.

Key:
hP2X2/3H = molecular target: T1, hP2X2/3H (Homo sapiens, UniProt P56373+Q9UBL9); experiment: Calcium uptake assay (P2X antagonist assay), P2X2/3 heteromer; format: cell-based; conditions: hP2X2/3H
T1 construct: expressed in transfected cells; host or cells: e.g. HEK293 or 1321N1
T1 sequence (Q9UBL9 1-471): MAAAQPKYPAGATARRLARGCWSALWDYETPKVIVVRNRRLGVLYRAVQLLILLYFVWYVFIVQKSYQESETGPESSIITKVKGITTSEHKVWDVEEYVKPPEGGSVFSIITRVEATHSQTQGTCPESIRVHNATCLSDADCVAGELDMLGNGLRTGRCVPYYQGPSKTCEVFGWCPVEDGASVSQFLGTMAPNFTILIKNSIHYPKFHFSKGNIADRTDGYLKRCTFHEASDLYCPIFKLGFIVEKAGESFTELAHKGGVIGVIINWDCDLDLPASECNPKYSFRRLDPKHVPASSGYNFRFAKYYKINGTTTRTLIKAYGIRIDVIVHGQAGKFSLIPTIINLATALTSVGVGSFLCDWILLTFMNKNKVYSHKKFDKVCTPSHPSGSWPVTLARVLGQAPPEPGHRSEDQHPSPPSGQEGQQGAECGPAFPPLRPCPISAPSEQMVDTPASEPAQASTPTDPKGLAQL
T1 sequence (P56373 1-397): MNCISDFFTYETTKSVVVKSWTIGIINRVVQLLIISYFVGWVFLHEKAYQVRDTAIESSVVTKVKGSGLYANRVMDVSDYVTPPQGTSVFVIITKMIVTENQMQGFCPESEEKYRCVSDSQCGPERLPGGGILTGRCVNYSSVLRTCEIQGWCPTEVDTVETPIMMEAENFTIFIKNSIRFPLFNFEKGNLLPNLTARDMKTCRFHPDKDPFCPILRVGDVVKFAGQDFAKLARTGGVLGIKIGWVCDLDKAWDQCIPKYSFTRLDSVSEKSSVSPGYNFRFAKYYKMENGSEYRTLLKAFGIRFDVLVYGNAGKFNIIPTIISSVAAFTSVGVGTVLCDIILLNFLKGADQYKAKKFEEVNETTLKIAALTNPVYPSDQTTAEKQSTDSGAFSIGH
Excerpt: (§1) The human P2X2/3 chimera clone is created as described by Neelands et al, and then cloned into an expression vector as above. Receptors are expressed in cells (e.g., HEK293 or 1321N1 (obtained from the ECACC)) via transient transfection using standard lipid mediated transfection, or by creation of stable transfectants for each receptor. For expression of the P2X2/3 heteromeric receptor, the P2X3 expression vector is stably transfected into a cell line already stably expressing P2X2. P2X2/3 heteromer function is isolated using pharmacological methods. Cell lines are maintained in DMEM+5% Glutamax, the appropriate level of selective antibiotic, and 10% heat inactivated FBS.
(§2) Functional activity of compounds at the P2X receptor is determined by measuring their ability to inhibit agonist-induced calcium influx. Compounds are tested for antagonist activity against the P2X2/3 chimera, the P2X3 homomer, or the P2X2/3 heteromer. At the start of each screening day, the agonist EC50 is determined. Compound % inhibition or IC50s are subsequently determined using a predetermined agonist concentration (EC50-90 depending on cell line) as a stimulus. The agonists used are αβMeATP, ATP, or other ATP analogs. Compounds may be tested at concentrations ranging from 1 pM to 10 μM.
(§3) To test for antagonist activity, cells expressing the appropriate receptor are seeded onto 96 or 384 well plates 18-24 hours prior to assay. […] Plates are incubated at 37° C. and then equilibrated at room temperature. Antagonism of agonist-induced calcium influx is measured using a fluorescent imaging plate reader (e.g. FLIPR^TETRA, Molecular Devices, Sunnyvale, Calif.). The assay comprises two stages: a pre-treatment phase followed by a treatment phase. Compounds may be tested as follows: For the pre-treatment phase, 50 μL of 3× concentration of test compound in HBSS is added to cells containing […], of dye loading media to achieve a final concentration of 1× test compound. For the treatment phase, at a set interval after pre-treatment (1-30 minutes), 50 μL of 1× test compound plus 4× agonist solution is added, resulting in a final concentration of 1× compound and 1× agonist. […] Responses are measured as (peak fluorescence after agonist addition) minus (baseline fluorescence prior to treatment). Percent inhibition is calculated as follows:
(§4) [formula] IC50 values are determined by analyzing dose response data in a 4 parameter logistic fit using GraphPad Prizm.

hP2X3 = molecular target: T2, hP2X3 (Homo sapiens, UniProt P56373); experiment: Calcium uptake assay (P2X antagonist assay), P2X3 homomer; format: cell-based; conditions: hP2X3
T2 construct: expressed in transfected cells; host or cells: e.g. HEK293 or 1321N1
T2 sequence (P56373 1-397): T1 sequence (P56373 1-397)
Excerpt: as §1, §2, §3, §4

[1] = Ca influx (calcium uptake assay), read-out: IC50 hP2X2/3H
[2] = Ca influx (calcium uptake assay), read-out: IC50 hP2X3
[3] = calcium uptake assay, read-out: IC50 hP2X2/3H (nM), Ca Influx
[4] = calcium uptake assay, read-out: IC50 hP2X3 (nM), Ca Influx

Row | SMILES | IC50 (hP2X2/3H; [1]) | IC50 (hP2X3; [2]) | IC50 (hP2X2/3H; [3]) | IC50 (hP2X3; [4])
1 | Cc1ccc(-c2cc(Oc3nccs3)cc(C(=O)NCc3ccc(C)nc3)c2)cc1 [Compound 238] | 100 to 500 nM | 100 to 500 nM |  | 
2 | Cc1ccc(-c2cc(C(=O)NCc3ccc4c(c3)S(=O)(=O)CC4)cc(C(=O)N3CCCC3)c2)cc1 [Compound 72] |  |  | < 100 nM | < 100 nM
3 | CCCS(=O)(=O)c1cc(C(=O)N[C@@H](C)CO)cc(-c2ccc(C)cc2)c1 [Compound 42] |  |  | > 1000 nM | < 100 nM
4 | Cc1ccc(-c2cc(C(=O)N[C@@H](C)CO)cc(S(=O)(=O)C3CCCC3)c2)cc1 [Compound 282] | > 1000 nM | < 100 nM |  | 
5 | Cc1ccc(-c2cc(C(=O)NCc3ccc(C(F)(F)F)nc3)cc(C(=O)N3CCCC3)c2)nc1 [Compound 123] |  |  | < 100 nM | < 100 nM
6 | Cc1ccc(-c2cc(C(=O)NCc3cnc(C)nc3)cc(C(=O)N3CC(F)(F)C3)c2)cc1 [Compound 17, 5-(3,3-Difluoroazetidine-1-carbonyl)-4′-methyl-N-((2-methylpyrimidin-5-yl)methyl)biphenyl-3-carboxamide] |  |  | < 100 nM | < 100 nM
7 | Cc1ccc(-c2cc(C(=O)N[C@@H](C)CO)cc(S(C)(=O)=O)c2)cc1 [Compound 3, (S)—N-(1-hydroxypronan-2-yl)-4′-methyl-5-(methylsulfonyl)biphenyl-3-carboxamide] |  |  | > 1000 nM | 100 to 500 nM
8 | Cc1ccc(-c2cc(C(=O)NCc3ccc(C)nc3)cc(C(=O)N3CC[C@H](N(C)C)C3)c2)cc1 [Compound 142] |  |  | 100 to 500 nM | < 100 nM
9 | CCOC(=O)c1cc(C(=O)N[C@@H](C)CO)cc(-c2ccc(C)cc2)c1 [Compound 6, (S)-Ethyl 5-(1-hydroxypropan-2-ylcarbamoyl)-4′-methylbiphenyl-3-carboxylate] |  |  | 501 to 1000 nM | 100 to 500 nM
10 | Cc1ccc(-c2cc(C(=O)NCc3ccc(Cl)cc3Cl)cc(S(C)(=O)=O)c2)nc1 [Compound 385] | 100 to 500 nM | 100 to 500 nM |  | 
11 | Cc1ccc(-c2cc(C(=O)NCC(C)C)cc(C(=O)N[C@@H](C)CO)c2)cc1 [Compound 2, (S)—N3-(1-Hydroxypropan-2-yl)-N5-isobutyl-4′-methylbiphenyl-3,5-dicarboxamide] |  |  | > 1000 nM | 501 to 1000 nM
12 | Cc1ccc(CNC(=O)c2cc(-c3ccc(C)c(F)c3)cc(S(C)(=O)=O)c2)cn1 [Compound 137] |  |  | 100 to 500 nM | 100 to 500 nM
13 | Cc1ccc(-c2cc(C(=O)NCc3ccc(C)nc3)cc(C(=O)N3CCCc4ccccc43)c2)cc1 [Compound 188] |  |  | 100 to 500 nM | 100 to 500 nM
14 | Cc1ccc(-c2cc(C(=O)NCc3ccc(C)nc3)cc(C(=O)N3C(C)CCC3C)c2)cc1 (stereo not drawn) [Compound 189] |  |  | < 100 nM | < 100 nM
15 | Cc1ccc(-c2cc(C(=O)NCc3ccc(C(F)(F)F)nc3)cc(C(=O)N3CC[C@@H](O)C3)c2)cc1 [Compound 156] |  |  | 100 to 500 nM | < 100 nM
16 | Cc1ccc(-c2cc(C(=O)NCc3ccn4ccnc4c3)cc(C(=O)N(C)CC(C)C)c2)cc1 [Compound 11, N3-(Imidazo[1,2-a]pyridin-7-ylmethyl)-N5-isobutyl-N5,4′-dimethylbiphenyl-3,5-dicarboxamide] |  |  | 100 to 500 nM | < 100 nM
17 | Cc1ccc(-c2cc(C(=O)NCc3cnc(C)nc3)cc(C(=O)N3CCN(C)C(=O)C3)c2)cc1 [Compound 27] |  |  | 501 to 1000 nM | < 100 nM
18 | Cc1ccc(-c2cc(C(=O)NCc3ccc(C)nc3)cc(C(=O)N(C)C3CCNCC3)c2)cc1 [Compound 167] |  |  | > 1000 nM | 100 to 500 nM
19 | Cc1ccc(-c2cc(Oc3nccs3)cc(C(=O)NCc3ccc(C)nc3)c2)c(C#N)c1 [Compound 260] | 100 to 500 nM | < 100 nM |  | 

Continued, values first:

Row | IC50 (hP2X2/3H; [1]) | IC50 (hP2X3; [2]) | IC50 (hP2X2/3H; [3]) | IC50 (hP2X3; [4]) | SMILES
20 | 100 to 500 nM | < 100 nM |  |  | Cc1ccc(-c2cc(OCC3COCCO3)cc(C(=O)N[C@H](C)c3ccc(C)nc3)c2)cc1 (stereo partly drawn) [Compound 326]
21 |  |  | < 100 nM | < 100 nM | Cc1ccc(-c2cc(C(=O)N[C@H](C)c3cnc(C)nc3)cc(C(=O)N3CCCC3)c2)cc1 [Compound 52]
22 |  |  | > 1000 nM | > 1000 nM | Cc1ccc(-c2cc(C(=O)N[C@@H](C)c3ccc(C)nc3)cc(C(=O)N3CCCC3)c2)cc1 [Compound 177]
23 | 100 to 500 nM | < 100 nM |  |  | COCCOc1cc(C(=O)NCc2cnc(C)nc2)cc(-c2ccc(C)cc2)c1 [Compound 250]
24 | 501 to 1000 nM | 100 to 500 nM |  |  | COCc1cc(C(=O)NCc2cnc(C)nc2)cc(-c2ccc(C)cn2)c1 [Compound 275]
25 | 100 to 500 nM | < 100 nM |  |  | Cc1ccc(-c2cc(C(=O)N[C@H](C)c3cnc(C)nc3)cc(C(O)CO)c2)c(C#N)c1 (stereo partly drawn) [Compound 360]
26 |  |  | < 100 nM | < 100 nM | Cc1ccc(-c2cc(C(=O)N[C@H](C)c3ccc(C)nc3)cc(S(=O)(=O)C(C)C)c2)cc1 [Compound 197]
27 |  |  | < 100 nM | < 100 nM | Cc1ccc(-c2cc(C(=O)N[C@H](C)c3cnc(C)nc3)cc(C(=O)N3CC[C@@H](O)C3)c2)cc1 [Compound 157]
28 | < 100 nM | < 100 nM |  |  | Cc1ccc(-c2cc(Oc3nc4ccccc4s3)cc(C(=O)N[C@H](C)c3ccc(C)nc3)c2)nc1 [Compound 376]
29 | < 100 nM | < 100 nM |  |  | Cc1ccc(-c2cc(C(=O)N[C@H](C)c3cnc(C)nc3)cc(C(O)c3cncn3C)c2)cc1 (stereo partly drawn) [Compound 354]
30 |  |  | 100 to 500 nM | < 100 nM | Cc1ccc(-c2cc(C(=O)NCc3cnc(C)nc3)cc(C(=O)N3CCCC3)c2)nc1 [Compound 28, 3-(5-Methylpyridin-2-yl)-N-((2-methylpyrimidin-5-yl)methyl)-5-(pyrrolidine-1-carbonyl)benzamide]
31 |  |  | < 100 nM | < 100 nM | Cc1ccc(-c2cc(C(=O)N[C@H](C)c3cnc(C)nc3)cc(C(=O)N3CCC3)c2)cc1 [Compound 78]
32 | < 100 nM | < 100 nM |  |  | Cc1ccc(-c2cc(C(=O)N[C@H](C)c3cnc(C)nc3)cc(C(O)c3ccccc3)c2)nc1 (stereo partly drawn) [Compound 277]
33 | 100 to 500 nM | < 100 nM |  |  | COCCOc1cc(C(=O)N[C@H](C)c2ccc(C)nc2)cc(-c2ccc(C)cn2)c1 [Compound 265]
34 | < 100 nM | < 100 nM |  |  | Cc1ccc(-c2cc(OCCO)cc(C(=O)N[C@H](C)c3ccc(C)nc3)c2)c(C#N)c1 [Compound 305]
35 | < 100 nM | < 100 nM |  |  | Cc1ccc(-c2cc(OC3CCOC3)cc(C(=O)N[C@H](C)c3cnc(C)nc3)c2)c(C#N)c1 (stereo partly drawn) [Compound 358]
36 | < 100 nM | < 100 nM |  |  | Cc1ccc(-c2cc(C(=O)N[C@H](C)c3ccc(C)nc3)cc(C(O)CO)c2)cc1 (stereo partly drawn) [Compound 289]
37 | 100 to 500 nM | < 100 nM |  |  | Cc1ccc(-c2cc(OC3CNCC3O)cc(C(=O)N[C@H](C)c3ccc(C)nc3)c2)cc1 (stereo partly drawn) [Compound 327]
38 | 100 to 500 nM | < 100 nM |  |  | Cc1ccc(-c2cc(Oc3ncccn3)cc(C(=O)N[C@H](C)c3cnc(C)nc3)c2)c(C#N)c1 [Compound 247]
39 | < 100 nM | < 100 nM |  |  | Cc1ccc(-c2cc(OC3CCOC3)cc(C(=O)N[C@H](C)c3ccc(C)nc3)c2)nc1 (stereo partly drawn) [Compound 333]
